123 compounds from a melting point compilation (Tetko et al.) can be followed below.

`O=C1C(Br)CCN1c1ccccc1F` (stereo not drawn) displayed a melting point of 76 to 78 °C.

Compound `O=C(NCCO)c1ccc(Cl)nn1` came in with a melting point of 119 to 121 °C.

Consider `Cn1cc(C(=O)O)c(=O)n(C)c1=O`, for which the melting point fell in the range of 189 to 191 °C.

On to `COC(=O)C(=O)CC(=O)c1ccc(Br)cc1`, for which the melting point lay within 104 to 106 °C.

Consider `Nc1nc(-c2nc3ccccc3s2)cs1`, for which the melting point fell in the range of 248 to 250 °C.

With `NC(=NO)c1cccc(NC(=O)C2CC2)c1`, the melting point is 229 to 231 °C.

Take `Cc1ccc(S(=O)(=O)N2CCC(C(=O)O)CC2)cc1C`: the melting point is 190 to 192 °C.

With `CC(=O)c1c(C)[nH]c(C(=O)CCl)c1C`, the melting point was 170 to 180 °C.

Take `Cc1nc(Cl)c(Cl)nc1C`: the melting point was 77 to 79 °C.

Regarding `CC(C)NS(=O)(=O)c1ccc(F)c(C(=O)O)c1`, the melting point lay within 167 to 169 °C.

`Cc1cc(CO)ncn1` gave a melting point of 74 to 76 °C.

In turn, `COc1cc(C=O)ccc1OCC(=O)c1ccccc1` came in with a melting point of 127 to 129 °C.

`CCNC(C(=O)O)c1ccc(F)c(F)c1` (stereo not drawn) gave a melting point of 277 to 279 °C.

As to `CS(=O)(=O)OCCn1cc(C#N)cn1`, the melting point was in the range of 64 to 66 °C.

Take `NC(=O)NCCc1cccs1`: the melting point lay in the range of 88 to 98 °C.

Regarding `O=C(O)c1cn(-c2cccc([N+](=O)[O-])c2)nn1`, the melting point lay in the range of 159 to 161 °C.

With `COc1ccc(NC(=O)Oc2ccccc2)c([N+](=O)[O-])c1`, the melting point fell in the range of 43 to 48 °C.

`CCNC(c1cccnc1)c1ccc2c(c1)CCO2` (stereo not drawn) returned a melting point of 50 to 52 °C.

Compound `CS(=O)(=O)Nc1cc(C(=O)O)ccc1Cl` had a melting point of 275 to 277 °C.

`Nc1ccc(-c2nc3ccccc3s2)cn1` returned a melting point of 187 to 189 °C.

For `Cn1cc(-c2ccc(F)c(C(=O)O)c2)cn1`, the melting point lay within 208 to 210 °C.

As for `Nc1nc2ccccc2n1N`, the melting point fell in the range of 259 to 261 °C.

`CCOc1ccc(O)c(C=O)c1`: the melting point was in the range of 49 to 51 °C.

`COc1ccc(S(=O)(=O)N2CCOCC2)cc1NC(=O)CCl` displayed a melting point of 180 to 182 °C.

In turn, `FC(F)(F)CNc1nnc(S)s1` displayed a melting point of 178 to 180 °C.

As to `Cc1nnc(S)n1C1CCCCC1`, the melting point was 164 to 166 °C.

`Cc1ccc(C)c(-n2nnnc2S)c1` showed a melting point of 129 to 131 °C.

`O=Cc1nc(-c2ccccc2)c[nH]1` had a melting point of 170 to 172 °C.

Compound `O=C1NCCN1CCN1CCNCC1` yielded a melting point of 139 to 141 °C.

In turn, `Cn1ccnc1C(=O)c1ccc(N)cc1` yielded a melting point of 70 to 72 °C.

For `O=C1CCC(C(F)(F)F)CN1` (stereo not drawn), the melting point is 141 to 143 °C.

Take `NS(=O)(=O)c1c(Cl)cccc1Cl`: the melting point was 176 to 178 °C.

The compound `CCN(CC)Cc1csc(N)n1` returned a melting point of 64 to 66 °C.

`CS(=O)(=O)CCC(NC(=O)c1ccc(Cl)cc1)C(=O)O` (stereo not drawn) returned a melting point of 184 to 186 °C.

As for `O=C(O)Cc1cccc(OCC(F)(F)F)c1`, the melting point was in the range of 99 to 101 °C.

Compound `O=C(O)CCC(=O)c1ccc(S(=O)(=O)Cl)cc1` came in with a melting point of 126 to 128 °C.

Take `Nc1nnc(SCc2ccccc2)s1`: the melting point lay within 159 to 161 °C.

Turning to `CCOc1ccc(NS(=O)(=O)c2ccc(OC)c(N)c2)cc1`, the melting point is 94 to 95 °C.

As for `COc1ccc(C(=O)O)c(I)c1`, the melting point was in the range of 182 to 184 °C.

`CC(C)c1ccc(-c2noc(CCl)n2)cc1` gave a melting point of 50 to 52 °C.

The compound `Cc1ccc(-n2c(S)nnc2-c2ccncc2)cc1C` showed a melting point of 260 to 262 °C.

Turning to `CCCCC(NC(N)=O)C(=O)O` (stereo not drawn), the melting point is 166 to 168 °C.

Compound `Cc1ccc2c(C(=O)CC#N)c[nH]c2c1` returned a melting point of 268 to 270 °C.

As to `CCOC(=O)C(C(C)=O)C1CCS(=O)(=O)C1` (stereo not drawn), the melting point lay in the range of 71 to 80 °C.

For the compound `Nc1nc(-c2ccccc2Cl)cs1`, the melting point is 142 to 144 °C.

The compound `COC1=CC(=C(N)N=O)C=CN1` returned a melting point of 174 to 176 °C.

For `CNS(=O)(=O)c1ccc(N)cc1OC`, the melting point was 187 to 189 °C.

`Cc1cccc2[nH]c(C(=O)O)cc12`: the melting point fell in the range of 216 to 218 °C.

`O=c1[nH]nnn1-c1cccs1` yielded a melting point of 151 to 153 °C.

Compound `Nc1ccc(Cc2nnn[nH]2)cc1` showed a melting point of 174 to 176 °C.

Compound `COC(=O)C1Nc2ccccc2S(=O)(=O)N1` (stereo not drawn) displayed a melting point of 171 to 173 °C.

Compound `CC1CCN(CC(=O)O)CC1` yielded a melting point of 147 to 149 °C.

`c1ccc(COc2cccc3[nH]ncc23)cc1` gave a melting point of 125 to 127 °C.

Turning to `NC(=O)NCc1ccc(C(=O)O)cc1`, the melting point was 291 to 293 °C.

In the case of `Cc1nn(-c2ccccc2)cc1N`, the melting point was 81 to 83 °C.

As to `O=c1[nH]nc(-c2ccc(Cl)c(Cl)c2)c2ccccc12`, the melting point was 274 to 276 °C.

`CN1CCN(S(=O)(=O)c2cccc(C(=O)O)c2)CC1`: the melting point lay within 230 to 232 °C.

Compound `Nc1nc(Cc2ccccc2)cs1` returned a melting point of 89 to 91 °C.

`CCOc1ccc(C(=O)NCC(=O)O)cc1OCC` came in with a melting point of 119 to 122 °C.

As to `C=CCNc1ncc(C(=O)OC)s1`, the melting point lay in the range of 109 to 111 °C.

As for `Cc1nc(-c2cccc(N)c2)n[nH]1`, the melting point lay in the range of 56 to 58 °C.

For the compound `Nc1nc(-c2ccc(OC(F)F)cc2OC(F)F)cs1`, the melting point was 86 to 88 °C.

In turn, `O=C(O)C(=O)Cc1ccc2ccccc2c1` returned a melting point of 188 to 190 °C.

Take `N#Cc1ccc(I)cc1C#N`: the melting point is 140 to 142 °C.

`Nc1ncc(Cc2ccccc2F)s1` returned a melting point of 97 to 99 °C.

`N#CCN1C(=O)c2ccccc2C1=O`: the melting point lay within 125 to 127 °C.

Consider `CC(C)(C)OC(=O)N1CCN2C(=O)C(=O)NCC2C1` (stereo not drawn), for which the melting point fell in the range of 222 to 224 °C.

In turn, `O=C(O)CCNC(=O)Nc1ccc(Br)cc1` had a melting point of 248 to 250 °C.

For the compound `NC(=NO)c1ccc(O)cc1`, the melting point was 152 to 156 °C.

The compound `O=C(Nc1cccc(O)c1)c1cccs1` yielded a melting point of 154 to 156 °C.

In turn, `O=C(O)c1ncoc1-c1ccco1` had a melting point of 171 to 173 °C.

Turning to `CCN(CCC(N)=S)C(C)=O`, the melting point lay in the range of 56 to 58 °C.

`Sc1nc(-c2cc3ccccc3o2)no1` registered a melting point of 152 to 154 °C.

On to `CCCc1nc(N)sc1CC`, for which the melting point lay within 53 to 55 °C.

Compound `CN(CC(=O)NC1CC1)C(=O)CCl` showed a melting point of 113 to 115 °C.

The compound `O=C(O)c1ccccc1OCc1cccnc1` displayed a melting point of 160 to 162 °C.

`Cn1cnc([N+](=O)[O-])c1CCl` came in with a melting point of 127 to 129 °C.

The compound `O=C1NC(=O)N(CCC2=CCCCC2)C1=O` displayed a melting point of 127 to 129 °C.

On to `Nc1cnc(Br)cc1C(=O)O`, for which the melting point is 256 to 258 °C.

Compound `O=c1[nH]c(CCl)nc2c1cnn2-c1ccccc1` displayed a melting point of 259 to 261 °C.

`CC(C)(C)n1cc(C(=O)O)c(Br)n1` registered a melting point of 163 to 165 °C.

Take `Cc1nc2c(s1)C(O)CCC2` (stereo not drawn): the melting point lay in the range of 80 to 82 °C.

Take `O=C(Nc1ccc(C(F)(F)F)cc1)OCC(F)(F)F`: the melting point was 102 to 104 °C.

`CC1CCc2c(sc3nc(C(C)Cl)[nH]c(=O)c23)C1` (stereo not drawn): the melting point was 248 to 250 °C.

As for `C#CCOc1ccc(Br)cc1C=O`, the melting point was in the range of 94 to 98 °C.

On to `CCOC(=O)c1cc(CC)sc1NC(=O)C(C)Cl` (stereo not drawn), for which the melting point lay in the range of 57 to 59 °C.

`Cc1oc(-c2cccs2)nc1CCl` showed a melting point of 65 to 67 °C.

Consider `CCc1nn(C)c(Cl)c1C(=O)O`, for which the melting point fell in the range of 139 to 141 °C.

The compound `Nc1ccc(N2CCCCC2)c(S(=O)(=O)Nc2ccc(Cl)cc2)c1` had a melting point of 145 to 147 °C.

Turning to `Nc1ccc(S(=O)(=O)CC2CCOC2)cc1` (stereo not drawn), the melting point was in the range of 118 to 120 °C.

In the case of `CCOC(=O)c1oc2c(Br)cccc2c1C`, the melting point is 68 to 70 °C.

`COc1cc(C(=O)O)ccc1OCc1cccnc1` came in with a melting point of 179 to 181 °C.

For `N#Cc1cc(C(F)(F)F)ccc1-n1cncn1`, the melting point was in the range of 114 to 116 °C.

Compound `Nn1cnnc1-c1ccccc1` registered a melting point of 115 to 117 °C.

As for `COc1ccc(C(NC(=O)CCl)c2ccc(OC)cc2)cc1`, the melting point was 118 to 120 °C.

Turning to `NC1(CO)CCc2ccccc21` (stereo not drawn), the melting point was 100 to 102 °C.

Take `O=C(O)CCn1ccc2cc(Cl)ccc21`: the melting point is 59 to 61 °C.

Compound `NCC1CC(O)CN1Cc1ccccc1` (stereo not drawn) registered a melting point of 54 to 56 °C.

Consider `CCC(=O)C(N)=O`, for which the melting point was 94 to 96 °C.

For the compound `Nc1ccccc1N1CCC(O)CC1`, the melting point lay in the range of 117 to 119 °C.

In the case of `CN1C(=O)C(C(N)=NO)=C(N)C12CCCC2`, the melting point was in the range of 210 to 212 °C.

Turning to `Cc1ccc(S(N)(=O)=O)cc1N`, the melting point fell in the range of 176 to 178 °C.

`Nc1ccc(S)c(Br)c1`: the melting point lay within 94 to 96 °C.

In turn, `CC(=O)c1ccc(-c2ccc(C(F)(F)F)cc2)s1` came in with a melting point of 127 to 129 °C.

`c1ccc2[nH]c(C3CCCNC3)nc2c1` (stereo not drawn) returned a melting point of 189 to 191 °C.

As for `CCC(=O)Nc1ccc(S(=O)(=O)Cl)cc1`, the melting point was 109 to 111 °C.

On to `O=C(O)CN1C(=O)COc2ccc([N+](=O)[O-])cc21`, for which the melting point is 200 to 202 °C.

Regarding `CCC(=O)N1CSCC1C(=O)O` (stereo not drawn), the melting point was 74 to 76 °C.

In the case of `CCOc1ccc(NC(=O)CCl)cc1`, the melting point lay within 149 to 151 °C.

The compound `O=C(CCl)c1c[nH]c(C(=O)N2CCCC2)c1` had a melting point of 200 to 204 °C.

On to `CC(C)(C)OC(=O)NC1(C(N)=NO)CCCC1`, for which the melting point lay in the range of 168 to 170 °C.

Regarding `Cc1ccc2nc(NCc3ccccc3)sc2c1`, the melting point fell in the range of 175 to 177 °C.

`O=C(O)CNC(=O)c1cc2c(s1)CCC2`: the melting point fell in the range of 207 to 209 °C.

Consider `O=c1[nH]c(S)nc2cc(Cl)ccc12`, for which the melting point lay within 306 to 308 °C.

Turning to `CC(=O)c1ccc(OC(C)C)cc1`, the melting point was 42 to 44 °C.

The compound `Sc1nnc(N2CCOCC2)n1CC1CCCO1` (stereo not drawn) registered a melting point of 186 to 188 °C.

`Cc1[nH]c2ccc(CN)cc2c1C`: the melting point was in the range of 149 to 151 °C.

In turn, `CCc1nc(NC(=O)CCl)sc1C` yielded a melting point of 124 to 126 °C.

The compound `Cc1cccc(-n2c(C)cc(C(=O)O)c2C)c1` displayed a melting point of 194 to 196 °C.

In the case of `O=C(Nc1ccncc1)OCC(F)(F)F`, the melting point was 193 to 195 °C.

With `COc1ccc(NC(C)=O)cc1N`, the melting point lay within 106 to 108 °C.

`CC(C)c1nc(N)n(C)n1` showed a melting point of 108 to 110 °C.

In the case of `CCOc1ccc(C(N)=O)cn1`, the melting point is 179 to 181 °C.
